Test results taken from US10342796B2, “Acrylanilide derivative, preparation method, and applications thereof in pharmacy” (Ancureall Pharmaceutical (Shanghai) Co., Ltd., priority 2015, dated 2019).
Where two headings read alike, the source gives them in different places.

Tests used:
Assay in all cases: Growth inhibition GI50 in vitro (CCK8/MTT, 72 h)
[1] = system: PC-9 (EGFR dE746-A750); format: cell-based, human; conditions: Homo sapiens
[2] = system: H1975 (EGFR L858R/T790M); format: cell-based, human; conditions: Homo sapiens, NCI-H1975
[3] = system: H292 (EGFR WT); format: cell-based; conditions: Homo sapiens, NCI-H292; Table 15; 1000 nM to 0.03 nM serial dilution; read-out: GI50 H292 (EGFR WT)
Text: EGFR wild type cell lines: human epidermal cancer cell line A431 (EGFR WT, amplification and high expression, from Shanghai Cell Bank of Chinese Academy of Sciences and ATCC), NSCLC cell lines NCI-H460 (EGFR WT, Kras G61H and PI3KCA E545K mutants, ATCC) and NCI-H1299 (EGFR WT, ATCC), melanoma cell line A375 (EGFR WT and BRAF V600E mutant, from Shanghai Cell Bank of Chinese Academy of Sciences, ATCC), human lung cancer cell line NCI-H292 (EGFR WT, from human lung mucoepidermoid carcinoma/lymphatic metastasis, purchased from Shanghai Cell Bank of Chinese Academy of Sciences) were cultured with 1×RPMI1640 complete medium which was supplement with 10% FBS. NSCLC cell line A549 (EGFR WT and Kras G12S mutant, from Shanghai Cell Bank of Chinese Academy of Sciences) was cultured with 1×Ham'S F12K complete medium which was supplement with 10% FBS, 1% double-antibiotics and 2 mM glutamine.
(§1) The suspension cells were collected by centrifugation. The supernatant was discard and the cell pellet was resuspended and counted. Different cell concentrations (5˜10×10^4 cells/mL) were prepared according to the growth cycle of each cell line and then seeded on a 96-well plate (Corning), 100 μL/well. The cells were incubated over night at 37° C., 5% CO2. The compounds were added to the cells on the second day with 2 wells in parallel. The final concentration of organic solvent shall not exceed 1%. The cells were continually incubated for 72 h, and then subjected to MTT assay.
(§2) The present compounds and the reference compounds were dissolved with DMSO (Sigma), respectively. […] The storage concentration of compounds was 10 mM and kept at −20° C. They were diluted by 2 times or 10 times with serial dilution before using.
(§3) Dojindo CCK8 reagent kit was used as MTT assay. […] FC meter was used as microplate reader.
(§4) Adherent cell culture medium was discard and immediately replaced with fresh prepared medium which contains 10% CCK8 reagent (100 μL/well). For the suspension cells, CCK8 was directly added to 10% of the final concentration. The cells were continually incubated for 1˜4 h. When the color of control wells turned to dark yellow, the absorption value was measured at OD450 nm. The cell growth rate was calculated according to the following formula: cell growth rate (%)=100*(T−T0)/(C−T0), T=optical density of drug treatment cell well—optical density of blank control well; T0=optical density of cell well before drug treatment—optical density of blank control well; C=optical density of cell well of solvent control group—optical density of blank control well. […] The experiment was independently repeated 1˜3 times, and subject to biological statistical analysis.

[4] = system: Calu-3 (Her2 amp); format: cell-based; conditions: Homo sapiens, Calu-3; Table 16; 1000 nM to 0.03 nM serial dilution; read-out: GI50 Calu3 (HER2 amp)
Experimental: (§5) Human lung adenocarcinoma cell line Calu-3 (ATCC) was cultured with 1×MEM complete medium (10% FBS, 1% double-antibiotics, 1% NEAA (Gibco), 2 mM glutamine and 1 mM of sodium pyruvate). Human breast cancer cell line SK-BR-3 was cultured with McCOY'S5A complete medium (10% FBS). Human colon cancer cell line SNU1040 (HER2 V777M positive) (ATCC) and human bronchoalveolar adenocarcinoma cell line NCI-H1781 (expressing HER2 exon 20 G776VC mutation) (ATCC) were cultured with 1×RPMI1640 complete medium (10% FBS), respectively.
as §1, §2, §3, §4

[5] = system: SNU1040 (HER2 V777M positive); format: cell-based; conditions: Homo sapiens; Table 16; 1000 nM to 0.03 nM serial dilution; read-out: GI50 SNU-1040 (HER2 V777M)
Experimental: as §5
as §1, with “Adherent cells were digested with 0.25% pancreatin-EDTA (Gibco). The suspension” for “The suspension”
as §2, §3
(§6) Adherent cell culture medium was discard and immediately replaced with fresh prepared medium which contains 10% CCK8 reagent (100 μL/well). For the suspension cells, CCK8 was directly added to 10% of the final concentration. The cells were continually incubated for 1˜4 h. When the color of control wells turned to dark yellow, the absorption value was measured at OD450 nm. The cell growth rate was calculated according to the following formula: cell growth rate (%)=100*(T−T0)/(C−T0), T=optical density of drug treatment cell well—optical density of blank control well; T0=optical density of cell well before drug treatment—optical density of blank control well; C=optical density of cell well of solvent control group—optical density of blank control well. The concentration value of 50% inhibition of cell growth (GI50) was calculated. The experiment was independently repeated 1˜3 times, and subject to biological statistical analysis.
(§7) Furthermore, the present compounds (99, 136, 205, 211, 212, 213, 216, 229, 230, 231, 232, 233 and 236) were selected to carry out growth inhibition test for HER2/ERBB2 gene amplified or high expressed or mutant tumor cells. Afatinib and AZD9291 were used for references as second- and third-generation inhibitors of EGFR.
(§8) Each compound started at 1000 nM as an initial concentration and was diluted by 2 times with serial dilution to 0.03 nM. The GI50 value of each compound was calculated according to Test Example 1.3.

[6] = system: NCI-H1781 (HER2 exon 20 G776VC mutation); format: cell-based; conditions: Homo sapiens, NCI-H1781; Table 16; 1000 nM to 0.03 nM serial dilution; read-out: GI50 H1781 (HER2 G776VC)
Experimental: as §5
as §1, with “Adherent cells were digested with 0.25% pancreatin-EDTA (Gibco). The suspension” for “The suspension”
as §2, §3, §6, §7, §8

[7] = system: A549 (EGFR WT); format: cell-based, human; conditions: Homo sapiens, A549
[8] = system: N87 (HER2 Amp); format: cell-based, human; conditions: Homo sapiens
[9] = system: SW48 (EGFR G719S positive); format: cell-based; conditions: Homo sapiens, SW48; Table 15; 1000 nM to 0.03 nM serial dilution; read-out: GI50 SW48 (EGFR G719S)
Experimental: PC-9ER is an acquired Erlotinib resistance cell line of PC-9 cells developed by the investor. […] The four cell lines above were cultured with 1×RPMI1640 complete medium (supplement with 10% FBS). Human colon cancer cell line SW48 (EGFR G719S positive, ATCC). was cultured with L15 complete medium (10% FB S).
as §1, §2, §3, §4
Each compound started at 1000 nM as an initial concentration and was diluted by […] with serial dilution to 0.03 nM.

- GI50 ([1]; Table 13, 72 h, read-out: Range of GI50 PC-9 (EGFR dE746-A750)): < 10 nM
- GI50 ([1]; Table 15, 1000 nM to 0.03 nM serial dilution, read-out: GI50 PC-9 (EGFR dE746-A750)): 0.49 nM
- GI50 ([2]; Table 13, 72 h, read-out: Range of GI50 H1975 (EGFR L858R/T790M)): 10 to 100 nM
- GI50 ([2]; Table 15, 1000 nM to 0.03 nM serial dilution, read-out: GI50 H1975 (EGFR L858R/T790M)): 19.2 nM
- GI50 [3]: > 1000 nM
- GI50 [4]: 0.98 nM
- GI50 [5]: 7.21 nM
- GI50 [6]: 0.87 nM
- GI50 ([7]; Table 13, 72 h, read-out: Range of GI50 A549 (EGFR WT)): > 1000 nM
- GI50 ([7]; Table 15, 1000 nM to 0.03 nM serial dilution, read-out: GI50 A549 (EGFR WT)): > 1000 nM
- GI50 [9]: 4.19 nM
Structure (SMILES): C=CC(=O)Nc1cc(Nc2cc(Nc3cc(C(F)(F)F)ccc3OC)ncn2)c(OC)cc1N(C)CCN(C)C [Compound 233, N-(5-(6-(2-methoxyl-5-trifluoromethyl-phenylamino)-pyrimidin-4-yl-amino)-2-((2-dimethylamino-ethyl)-methyl-amino)-4-methoxyl-phenyl)-acrylamide]
- GI50 ([8]; Table 13, 72 h, read-out: Range of GI50 N87 (HER2 Amp)): < 10 nM
- GI50 ([8]; Table 16, 1000 nM to 0.03 nM serial dilution, read-out: GI50 N87 (HER2 amp)): 0.95 nM
